This is an account of results in patent publication US20220274938A1, “5-[(1S)-1-(4-BROMOPHENOXY)ETHYL]-2H-TETRAZOLE DERIVATIVES AND RELATED COMPOUNDS AS CLC-1 ION CHANNEL INHIBITORS FOR TREATING NEUROMUSCULAR DISORDERS” (NMD PHARMA A/S, priority 2019, published 2022).

Holding throughout (type): cell-based
In one assay the target is T1, human CIC-1 channels (Homo sapiens, UniProt P35523).
T1 construct: host or cells: CHO (Chinese hamster ovary) cells, cryopreserved, used directly after thawing
Put plainly: Automated patch-clamp on the human isoform of CIC-1 expressed in CHO cells. The note with it: compound added to the intracellular solution vs control cell patches, positive shift reflects inhibition. As for the experimental part:
The investigatory goal of these experiments was to evaluate how compounds affect the open probability and current amplitude of human CIC-1 channels expressed in CHO cells. Experiments were performed using an automated patch clamp system that allowed high throughput testing of whole cell patches together with both intracellular and extracellular addition of compound.
Automated whole cell patch clamp experiments were performed with the Qpatch 16 system (Sophion Bioscience, Ballerup, Denmark) at room temperature. Data acquisition and analysis were performed in the Qassay software (ver. 5.6, Odense).
To obtain tail currents, the membrane potential was stepped to −100 mV after each test voltage for 300 ms and then relaxed to −30 mV for 2 sec between sweeps (FIG. 3). I/V relationships for whole cell instant and steady state current amplitudes were obtained by plotting average current densities at the beginning and at the end of the 300 ms step against the membrane potential (FIG. 4).
In order to determine the relative overall open probability (Po), the instantaneous tail currents were normalized to the maximal tail current obtained following the most positive voltage step and plotted against the test voltage. Plots of normalized tail currents from each whole cell patch were then fitted to a Boltzmann function allowing determination of half activation voltages (V1/2, FIG. 5).
Osmolality adjusted to ˜320 using sucrose. Intracellular solutions contained: 80 mM CsF, 60 mM CsCl, 5/1 mM KOH/EGTA, 10 mM HEPES, 10 mM NaCl, pH adjusted to 7.2 with NaOH (2 M). Osmolality adjusted to ˜320 mOsm using sucrose.
Cells used in patch clamp experiments were Chinese hamster ovary cells (CHO) constitutively expressing human CIC-1 channels. The amino acid sequence encoded by the cDNA used to create this cell line was identical to the translated sequence for GenBank accession number NM_000083.2. Cells were produced by Charles River (Catalogue CT6175, Cleveland Ohio, USA) in a cryopreserved format. Experiments were performed on the cells directly after thawing (3×10^6 cells used in each experiment).
To evaluate the compound effect on CIC-1, when applied directly to the intracellular side of the cell membrane, the half activation voltage, V1/2, was determined from whole cell patches with compound added to the intracellular solution and then compared to V1/2 determined from control cell patches with only vehicle added to the intracellular solution. Additionally, the effect of extracellular added compound was evaluated by determine V1/2 and steady state current amplitudes before and after exchanging the extracellular solution to contain compound.
The difference in half activation voltage of CIC-1 channels, ΔV1/2, was determined as the difference between the cell patches treated intracellularly with compound and control cells patches and is reported in Table 4 below. A positive shift in ΔV1/2 is reflecting CIC-1 channel inhibition by the tested compound. P-values of <0.05 is considered significant.

Assay [1] has as its system isolated rat soleus muscles. Put plainly: Measurement of force in an in vitro model: isolated rat soleus nerve-muscle preparation with tubocurarine. Particulars: Rattus norvegicus, 40 min; 50 μM test compound, after 40 mins of compound exposure; 115 nM tubocurarine for 90 mins; read-out: Point increase (%) of initial force that was restored. As for the experimental part: FIG. 2. […] Force traces from a representative muscle stimulated to contract in 1) control condition before addition of neuromuscular blocking agent, 2) the force response to stimulation after 90 minutes incubation with Tubocurarine. […] The traces presented in panel A (1, 2, 3), correspond to the dotted lines in panel B, respectively.
Recovery of force is quantified as the percentage of the force prior to tubocurarine that is recovered by the compound.
The current disclosure relates to compounds that inhibit CIC-1 ion channels and increase muscle excitability and thereby improve muscle function in clinical conditions where muscle activation is failing. Such conditions result in loss of contractile function of skeletal muscle, weakness and excessive fatigue. In this series of experiments the compounds were tested for their ability to restore contractile function of isolated rat muscle when the neuromuscular transmission had been compromised akin to neuromuscular disorders.
Experimentally, soleus muscles from 4-5 week old rats were isolated with the motor nerve remaining attached. The nerve-muscle preparations were mounted in experimental setups that enabled electrical stimulation of the motor nerve. Stimulation of the motor nerve led to activation of the muscle fibres and ensuing force production that was recorded. The nerve-muscle preparations were also in these experiments incubated in the standard Krebs Ringer (see example 5) and the solution was heated to 30° C. and continuously equilibrated with a mixture of 95% O2 and 5% CO2, pH˜7.4.
After mounting the nerve-muscle preparation in the experimental setup, the contractile function of the muscle was initially assessed under the control conditions (FIG. 2A). […] The experimental condition mimics the failing neuromuscular transmission in a range of neuromuscular disorders. After addition of tubocurarine the contractile force declined over the next 90 mins to 10-50% of the control force. 50 μM of the test compound was then added and the contractile force recovered despite the continued presence of tubocurarine. To quantify the ability of the compound to restore force the percentage of the initial force that was restored was determined after 40 mins of compound exposure (FIG. 2B) and the point increase is reported in Table 3.

The target in another assay is T2, CIC-1 ion channel (Rattus norvegicus, UniProt P35524).
T2 construct: CIC-1 channels in native tissue of rat skeletal muscle fibres; from tissue; host or cells: whole soleus muscle of 12-14 week old Wistar rats
T2 sequence (P35524 1-994): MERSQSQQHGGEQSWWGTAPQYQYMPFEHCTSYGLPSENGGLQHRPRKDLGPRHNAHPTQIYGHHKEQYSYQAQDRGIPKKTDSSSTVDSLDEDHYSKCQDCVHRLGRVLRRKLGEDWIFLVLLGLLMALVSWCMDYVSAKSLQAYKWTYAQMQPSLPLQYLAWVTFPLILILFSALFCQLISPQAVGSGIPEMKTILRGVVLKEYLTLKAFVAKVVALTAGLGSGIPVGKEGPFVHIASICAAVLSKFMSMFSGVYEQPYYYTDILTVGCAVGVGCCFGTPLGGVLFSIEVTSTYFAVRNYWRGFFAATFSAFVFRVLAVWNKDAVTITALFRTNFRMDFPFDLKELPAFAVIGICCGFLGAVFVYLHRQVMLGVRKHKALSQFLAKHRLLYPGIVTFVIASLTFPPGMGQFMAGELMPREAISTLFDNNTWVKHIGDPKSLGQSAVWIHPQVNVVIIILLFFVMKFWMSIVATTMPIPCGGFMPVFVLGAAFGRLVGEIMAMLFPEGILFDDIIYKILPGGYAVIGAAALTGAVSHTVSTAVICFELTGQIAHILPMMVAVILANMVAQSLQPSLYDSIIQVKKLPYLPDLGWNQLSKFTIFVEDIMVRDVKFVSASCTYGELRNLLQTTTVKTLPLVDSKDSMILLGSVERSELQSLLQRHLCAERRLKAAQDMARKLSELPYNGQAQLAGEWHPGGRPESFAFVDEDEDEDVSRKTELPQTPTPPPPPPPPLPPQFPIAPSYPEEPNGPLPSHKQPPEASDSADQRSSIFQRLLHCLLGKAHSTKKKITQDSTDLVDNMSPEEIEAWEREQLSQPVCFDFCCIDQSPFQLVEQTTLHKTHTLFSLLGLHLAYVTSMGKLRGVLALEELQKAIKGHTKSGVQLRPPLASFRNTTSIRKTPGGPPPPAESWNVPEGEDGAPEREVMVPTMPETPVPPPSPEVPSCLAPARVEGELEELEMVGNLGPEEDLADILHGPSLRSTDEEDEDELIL
Put plainly: Electrophysiological measurement (Gm, three micro-electrodes) of compound inhibition of CIC-1 in rat soleus muscle fibres. Particulars: approx. 30° C., four increasing compound concentrations, read-out: EC50 (inhibition of CIC-1 ion channel, reduction of Gm). An excerpt: FIG. 1. […] Please note that the drawing illustrates only the impaled fibre although it is part of an intact muscle that contains many such fibres. All electrodes recorded the membrane potential of the fibre and the two peripheral electrodes were used to inject current (−30 nA, 50 ms). The electrodes were inserted with known inter-electrode distances (X1, X2 and X3). After insertion, current was passed first via the V1 electrode and then via the V3 electrode. The resulting deflections in the membrane voltage were measured by the other electrodes. The steady state deflections in membrane potential were measured and divided by the magnitude of the injected current (−30 nA) to obtain transfer resistances. These were next plotted against inter-electrode distances, and fitted to an exponential function (Panel B), from which Gm could be calculated using linear cable theory. The approach described in panel A and B, was repeated for several muscle fibres in the muscle during exposure at increasing concentrations of compound E-8, with approx. 10 fibres at each concentration. Average Gm at each concentration was plotted as a function of compound concentration in panel C, and fitted to a 4-parameter sigmoidal function from which the EC50 value for the compound was obtained (dashed line)
Apparent CIC-1 affinity was reported by the concentration of compound at which 50% of the compound's full inhibition of CIC-1 was observed (EC50).
CIC-1 Cl^− ion channels generate around 80% of the total membrane conductance (Gm) in resting skeletal muscle fibres of most animals including rat and human (Bretag, A H. Muscle chloride channels. Physiological Reviews, 1987, 67, 618-724). […] CIC-1 inhibition would in such recordings be reflected by a reduction of Gm.
Experimentally, Gm was measured in individual fibres of whole rat soleus muscles using a three micro-electrodes technique described in this example and in full detail elsewhere (Riisager et al., Determination of cable parameters in skeletal muscle fibres during repetitive firing of action potentials. Journal of Physiology, 2014, 592, 4417-4429). Briefly, intact rat soleus muscles were dissected out from 12-14 week old Wistar rats and placed in an experimental chamber that was perfused with a standard Krebs Ringer solution containing 122 mM NaCl, 25 mM NaHCO3, 2.8 mM KCl, 1.2 mM KH2PO4, 1.2 mM MgSO4, 1.3 mM CaCl2, 5.0 mM D-glucose. During experiments, the solution was kept at approx. 30° C. and continuously equilibrated with a mixture of 95% O2 and 5% CO2, pH˜7.4. The experimental chamber was placed in Nikon upright microscope that was used to visualize individual muscle fibres and the three electrodes (glass pipettes filled with 2 M potassium citrate). For Gm measurements, the electrodes were inserted into the same fibre with known inter-electrode distances of 0.35-0.5 mm (V1-V2, X1) and 1.1-1.5 mm (V1-V3, X3) (FIG. 1A). The membrane potential of the impaled muscle fibre was recorded by all electrodes. Two of the electrodes were furthermore used to inject 50 ms current pulses of −30 nA. […] The steady state voltage deflection at each distance was divided by the magnitude of current injected (−30 nA) and the resulting transfer resistances were plotted against inter-electrode distance and the data was fitted to a mono-exponential function from which Gm could be calculated using linear cable theory (FIG. 1B).
To establish a dose response relationship, Gm was first determined in 10 muscle fibres in the absence of compound and then at four increasing compound concentrations with Gm determinations in 5-10 fibres at each concentration. The average Gm values at each concentration were plotted against compound concentration and the data was fitted to sigmoidal function to obtain an EC50 value (FIG. 1C).

T1 sequence (P35523 whole entry): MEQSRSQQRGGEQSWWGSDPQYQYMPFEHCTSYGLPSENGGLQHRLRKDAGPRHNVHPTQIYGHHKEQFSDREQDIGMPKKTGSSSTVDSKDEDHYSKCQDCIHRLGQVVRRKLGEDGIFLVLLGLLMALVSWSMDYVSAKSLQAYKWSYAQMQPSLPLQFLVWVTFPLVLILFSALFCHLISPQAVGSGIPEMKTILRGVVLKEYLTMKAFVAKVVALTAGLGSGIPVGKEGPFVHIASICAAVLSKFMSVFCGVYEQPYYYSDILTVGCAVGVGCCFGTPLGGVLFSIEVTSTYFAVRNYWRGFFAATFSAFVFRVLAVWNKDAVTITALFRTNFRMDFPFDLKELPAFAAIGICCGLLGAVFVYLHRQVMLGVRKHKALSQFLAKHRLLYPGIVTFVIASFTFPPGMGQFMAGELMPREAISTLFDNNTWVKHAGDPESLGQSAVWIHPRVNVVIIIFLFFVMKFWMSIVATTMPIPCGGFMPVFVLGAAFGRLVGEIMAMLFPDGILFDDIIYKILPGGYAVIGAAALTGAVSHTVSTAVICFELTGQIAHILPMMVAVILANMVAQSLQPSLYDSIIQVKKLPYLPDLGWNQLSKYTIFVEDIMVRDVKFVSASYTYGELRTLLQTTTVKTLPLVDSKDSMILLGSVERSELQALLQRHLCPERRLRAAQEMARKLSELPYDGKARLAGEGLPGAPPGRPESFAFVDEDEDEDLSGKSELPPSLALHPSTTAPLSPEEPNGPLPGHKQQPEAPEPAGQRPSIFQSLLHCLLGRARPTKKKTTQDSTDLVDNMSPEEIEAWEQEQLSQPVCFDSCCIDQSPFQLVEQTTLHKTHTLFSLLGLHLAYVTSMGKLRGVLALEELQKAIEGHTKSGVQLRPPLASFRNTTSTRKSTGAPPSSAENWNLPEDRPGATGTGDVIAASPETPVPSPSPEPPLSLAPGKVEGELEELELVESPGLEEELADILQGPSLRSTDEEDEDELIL

With `C[C@H](Oc1ccc(Br)cc1Br)C(=O)NC#N` [Compound B-2, (2S)-N-cyano-2-(2,4-dibromophenoxy)propanamide], the “ΔV1/2 (difference in half activation voltage of CIC-1 channels)” value at human CIC-1 channels was found to be 6.2 mV.

`C[C@H](Oc1ccc(Cl)cc1)C(=O)NC#N` [Compound B-4, (2S)-2-(4-chlorophenoxy)-N-cyanopropanamide]: the “ΔV1/2 (difference in half activation voltage of CIC-1 channels)” value on human CIC-1 channels is given as 21.2 mV.

`CC(=O)N1CCC(ONC(=O)[C@H](C)Oc2ccc(Br)cc2)C1` (some centres unmarked) [Compound C-8]: the “ΔV1/2 (difference in half activation voltage of CIC-1 channels)” value at human CIC-1 channels was found to be 10.3 mV. For the same compound, in assay [1], the activation at 50 µM was determined as 45%.

On to `CC(=O)NCCON(C(C)=O)C(=O)[C@H](C)Oc1ccc(Cl)cc1` [Compound C-22, (2S)-N-acetyl-2-(4-chlorophenoxy)-N-(2-acetamidoethoxy)propanamide], for which the activation at 50 µM in assay [1] is 22%. Further, the EC50 at CIC-1 ion channel is 7.8 µM.

On to `CONC(=O)[C@H](C)Oc1ccc(Br)cc1F` [Compound C-64, (2S)-2-(4-bromo-2-fluorophenoxy)-N-methoxypropanamide], for which, in assay [1], the activation at 50 µM was found to be 24%. For the same compound, on CIC-1 ion channel, the half-maximal effective concentration (EC50) came out at 3.1 µM.

Turning to `C[C@H](Oc1ccc(Cl)cc1)C(=O)NOCC1CC1` [Compound C-74, (2S)-2-(4-chlorophenoxy)-N-(cyclopropylmethoxy)propanamide], in assay [1], the activation at 50 µM is 22%. For the same compound, the half-maximal effective concentration (EC50) at CIC-1 ion channel was determined as 3.4 µM.

As for `C[C@H](Oc1ccc(Cl)cc1)C(=O)NOCC1CCC1` [Compound C-75, (2S)-2-(4-chlorophenoxy)-N-(cyclobutylmethoxy)propanamide], the activation at 50 µM in assay [1] amounted to 36%. In addition, on CIC-1 ion channel, the EC50 worked out at 2 µM.

`COC(=O)CONC(=O)[C@H](C)Oc1ccc(Cl)cc1` [Compound C-78, methyl 2-{[(2S)-2-(4-chlorophenoxy)propanamido]oxy}acetate]: the activation at 50 µM in assay [1] worked out at 41%. In addition, the concentration for a half-maximal effect (EC50) on CIC-1 ion channel was 3.1 µM.

In the case of `CC(C)ONC(=O)[C@H](C)Oc1ccc(Cl)cc1` [Compound C-84, (2S)-2-(4-chlorophenoxy)-N-(propan-2-yloxy)propanamide], the 50% effective concentration (EC50) on CIC-1 ion channel turned out to be 11.5 µM.

On to `CONC(=O)[C@H](C)Oc1ccc(Cl)cc1` [Compound C-85, (2S)-2-(4-chlorophenoxy)-N-methoxypropanamide], for which, in assay [1], the activation at 50 µM was 45%. The concentration giving a half-maximal response (EC50) on CIC-1 ion channel was 10.1 µM.

For `CC[C@H](Oc1ccc(Br)cc1)c1nn[nH]n1` [Compound E-5, 5-[(1S)-1-(4-bromophenoxy)propyl]-2H-1,2,3,4-tetrazole], the “ΔV1/2 (difference in half activation voltage of CIC-1 channels)” value on human CIC-1 channels is 13.9 mV.

Take `C[C@H](Oc1ccc(Br)cc1-c1ccon1)c1nnn[nH]1` [Compound E-7]: the EC50 at CIC-1 ion channel came out at 6 µM.

As for `C[C@H](Oc1ccc(Cl)cc1)c1nnn[nH]1` [Compound E-15, 5-[(1S)-1-(4-chlorophenoxy)ethyl]-1H-1,2,3,4-tetrazole], on CIC-1 ion channel, the concentration for a half-maximal effect (EC50) turned out to be 19.9 µM.
